Results published in patent publication US20080206219A1, “Novel Indications for Transforming Growth Factor-Beta Regulators” (THE REGENCTS OF THE UNIVERSITY OF CALIFORNIA, priority 2003, published 2008).

Experiments:
Assay type in all cases: in vivo
[1] = test system: Collα1(I)+/+ and Collα1(I)r/r mice; experiment: Miles assay: Evans blue leakage in ears after mustard oil challenge; settings: for Evans blue staining of ears following MO exposure: 5% mustard oil in mineral oil
Method: Evans blue (EB) dye (30 mg/kg in 100 μl PBS; Sigma-Aldrich) was injected into the tail vein of 7- to 8-week-old mice. In some experiments, after 1-min, 30 μl of 5% mustard oil (Phenyl Isothiocyanate, 98%, Sigma-Aldrich) diluted in mineral oil (Sigma-Aldrich) was applied to the dorsal and ventral surfaces of the ear; the application process was repeated 15 minutes later. Isoflurane anesthesized mice were photographed 30 minutes after injection of EB dye. Anesthesized mice were then cardiac perfused, ears removed, blotted dry and weighed. EB dye was extracted from ears in 1 ml of formamide overnight to 48-hrs at 60° C. and measured spectrophotometrically at 610 nm in a SpectraMax 340™ (Molecular Devices). Data are expressed as mean±SEM. Comparisons of the amounts of dye extravasation were evaluated by Mann-Whitney statistical test with p values less than 0.05 considered significant. In some experiments, 5-min prior to the infusion of EB dye, shaved 5-to 7-week old mice were injected (10 μl) intradermally with one of the following agents at the concentrations shown (VEGF120, R&D Systems; VEGF164, Chemicon; histamine, Calbiochem; serotonin, Sigma-Aldrich) and the appearance of a blue spot monitored for 30 minutes at which time mice were euthanized, cardiac perfused, photographed and the area of skin surrounding the site of injection excised (˜5 mm^2), photographed and EB dye extracted as above. […]
The vascular physiology in a mouse model of human Sc, e.g., Collα1(I)^r/r mice, was studied to determine whether an altered balance between collagen synthesis, accumulation and/or degradation was a rate-limiting factor for efficient vascular physiology prior to histopathologic appearance of Sc disease. The ears of Collα1(I)^r/r versus littermate control (Collα1(I)^+/+) mice were treated with vehicle alone (mineral oil; FIG. 1A) or mustard oil (MO; 5% in mineral oil: right ear), an inflammatory agent that induces plasma leakage, vasodilation of capillaries and inflammation in the skin (FIG. 1A). Evans blue dye (30 mg/kg in 100 μl PBS; Sigma Chemical Co., St. Louis, Mo., USA) was injected into the tail vein of the mice. After 1 minute, 5% mustard oil (Phenyl Isothiocyanate, 98%, Sigma) diluted in mineral oil (Sigma) was applied to the dorsal and ventral surfaces of the ear with a cotton swab; the application process was repeated 15 minutes later. […] Isoflurane anesthesized mice were photographed 30 minutes after injection of Evans blue dye. Anesthesized mice were then cardiac perfused, ears removed, blotted dry, and weighed. The Evans blue dye was extracted from the ears with 1 ml of formamide overnight at 60° C. and measured spectrophotometrically at 610 nm in a SpectraMax 340™ (Molecular Devices). Data are expressed as mean±SEM. Comparisons of the amounts of dye extravasation were evaluated by the Fisher's t test with p values less than 0.05 considered significant.
Vascular permeability (VP) responses in control and Collα1(I)^r/r mice treated with a broad spectrum synthetic metalloproteinase inhibitor (MPI), e.g., GM6001 were examined. GM6001 (N-[(2R)-2(hydroxyamidocarbonylmethyl)-4-methylpantanoyl]-L-tryptophan ethylamide), a broad, class-specific metalloproteinase inhibitor (Chemicon, Temecula Calif.), was administered daily i.p. at 100 mg/kg body weight as a 20 mg/ml slurry in 4% carboxymethylcellulose in 0.9% PBS daily for 3-days. Controls were treated with a daily injection of 4% carboxymethylcellulose in PBS. The animals were then subject to cutaneous challenge with MO and qualitative and quantitative assessment of Evans blue dye leakage into vascular stroma (FIG. 5A).

[2] = test system: control and Collα1(I)r/r mice; experiment: Fluorescent angiography of whole mounted ears after mustard oil
[3] = test system: control and Collα1(I)r/r mice; experiment: Modified Miles assay: intradermal injection of permeability-inducing agents
Method: Evans blue (EB) dye (30 mg/kg in 100 μl PBS; Sigma-Aldrich) was injected into the tail vein of 7- to 8-week-old mice. In some experiments, after 1-min, 30 μl of 5% mustard oil (Phenyl Isothiocyanate, 98%, Sigma-Aldrich) diluted in mineral oil (Sigma-Aldrich) was applied to the dorsal and ventral surfaces of the ear; the application process was repeated 15 minutes later. Isoflurane anesthesized mice were photographed 30 minutes after injection of EB dye. Anesthesized mice were then cardiac perfused, ears removed, blotted dry and weighed. EB dye was extracted from ears in 1 ml of formamide overnight to 48-hrs at 60° C. and measured spectrophotometrically at 610 nm in a SpectraMax 340™ (Molecular Devices). Data are expressed as mean±SEM. Comparisons of the amounts of dye extravasation were evaluated by Mann-Whitney statistical test with p values less than 0.05 considered significant. In some experiments, 5-min prior to the infusion of EB dye, shaved 5-to 7-week old mice were injected (10 μl) intradermally with one of the following agents at the concentrations shown (VEGF120, R&D Systems; VEGF164, Chemicon; histamine, Calbiochem; serotonin, Sigma-Aldrich) and the appearance of a blue spot monitored for 30 minutes at which time mice were euthanized, cardiac perfused, photographed and the area of skin surrounding the site of injection excised (˜5 mm^2), photographed and EB dye extracted as above.
The vascular leakage in control and Collα1(I)^r/r mice following intradermal injection of other agents known to induce vascular leakage, e.g., VEGFA120, VEGFA164 and serotonin (versus vehicle alone), by interacting with distinct cell surface receptors, e.g., VEGF receptor-2 (VEGFR2) and serotonin receptors, respectively (FIG. 3A) were assessed. 5 min prior to the infusion of Evans blue dye, shaved 5-to 7-week old mice were injected (10 μl) intradermally with VEGF120 (R&D Systems) VEGF164 (Chemicon; histamine, Calbiochem) serotonin (Sigma) TIMP-1 (Oncogene Research Products, San Diego Calif.) and the appearance of a blue spot monitored for 30 minutes at which time mice were euthanized, cardiac perfused, photographed and the area of skin surrounding the site of injection excised (˜5 mm^2), photographed and Evans blue dye extracted as above.

Row | Compound | amount of Evans blue leaked in response to MO, lower than in control animals ([1]; Collα1(I)r/r mice versus controls, p=0.0002) | Evans blue staining of ears following MO exposure ([1]; Collα1(I)r/r mice) | Evans blue staining of ears following MO exposure ([1]; littermate control mice) | total vascular area after MO versus vehicle ([2]; Collα1(I)r/r mice) | vasodilation of macrovasculature (vessel diameter) after MO ([2]; Collα1(I)r/r mice) | vasodilation of macrovasculature (vessel diameter) after MO ([2]; control mice) | total vascular area after MO versus vehicle ([2]; control mice, p<0.04) | Evans blue leakage response after intradermal injection ([3]; Collα1(I)r/r mice versus control mice, all concentrations tested) | leakage of Evans blue dye into stroma after intradermal injection ([3]; control mice, increasing concentrations)
1 | S=C=Nc1ccccc1 [MO, Phenyl Isothiocyanate] | ~50% | remained pale with only a modest hint of blue | moderately blue | unchanged | not observed | increased vasodilation of macrovasculature | significant increase in total vascular area |  | 
2 | NCCc1c[nH]c2ccc(O)cc12 [serotonin] |  |  |  |  |  |  |  | significantly inhibited | significant leakage
